According to US20090264483A1, “METHODS OF USING PPAR-gamma AGONISTS AND CASPASE-DEPENDENT CHEMOTHERAPEUTIC AGENTS FOR THE TREATMENT OF CANCER” (CEDARS-SINAI MEDICAL CENTER, priority 2006, published 2009):
d = 2'-deoxy (DNA); r = 2'-OH (RNA)

How the values were obtained:
Format in all cases: cell-based, human
[1] = tested on: LN-18, U-87MG, and MG-328 glioma cells; test: Cell viability assay (Ann/PI staining, FACS) with TRAIL
Description: (§1) Treatment of cells with TG, GW, PTPI, and/or SHPI for 24 h was followed by treatment with rTRAIL, VP16 or Taxol, and all the cells, including cells that had not adhered, were harvested after 24 h (48 h). An annexin V-fluorescein isothiocyanate apoptosis detection kit I (Pharmingen) was used for viability assay of the cells. Cells were stained with annexin V-fluorescein isothiocyanate (Ann) and propidium iodide (PI) according to the manufacturer's protocol and were analyzed by FACS (Pharmingen). Cells that stained negative for both Ann and PI were defined as viable cells for viability assay.

[2] = tested on: caspase-3, -8, and -9; test: Caspase activity assay in TRAIL-treated glioma cells
Description: (§2) Activity of caspase-3, -8, and -9 was measured using caspase-3/CPP32, FLICE/caspase-8, and APOPCYTO/caspase-9 […] assay kits, respectively, from Medical and Biological Laboratories Co. (Nagoya, Japan). Briefly, the treatment of cells with TG, GW, and/or PTPI for 24 h was followed by treatment with rTRAIL, VP 16 or Taxol. After 2 h (24 h) of treatment, all the cells were harvested, and samples were extracted with Cell Lysis Buffer. Concurrently, a sample for a negative control was extracted from the cells without apoptosis induction. A standard curve using the absorbance of p-nitroanilide standards was constructed, and then the specific activities on each sample were calculated according to the manufacturer's protocol.

[3] = tested on: STAT3, pY705-STAT3, FLIP, Bcl-2, Bax, pS392-p53, PTP1B, SHP-1; test: Western blot of glioma cell protein extracts
From the text: Rabbit polyclonal Abs against DR4, DR5, and PPARγ were obtained from Cayman Chemical. Mouse monoclonal Abs against STAT3, phosphotyrosine 705 STAT3 (pY705-STAT3), which is an activated form of STAT3, Bax, and Bcl-2 were obtained from Pharmingen. Rabbit polyclonal Abs against p53 and phosphor-Ser-392-p53 (pS392-p53) were obtained from Cell Signaling Technology (Beverly, Mass.). Mouse monoclonal Abs against PTP1B (PTPase1B; AE4-2J) and Src homology 2-containing PTP-1 (SHP1; 1SH01) and rabbit polyclonal Ab against FLIP were obtained from Calbiochem. Mouse monoclonal Ab of β-tubulin was obtained from Sigma. Horseradish peroxidase-linked Abs of sheep anti-mouse IgG and donkey anti-rabbit IgG were obtained from Amersham Biosciences.
Samples were extracted with buffer containing 1% Triton X-100, 150 mM NaCl, 50 mM Tris (pH 7.5), and 1 mM phenylmethylsulfonyl fluoride (Roche Applied Science) and were subjected to SDS-PAGE with 30 μg of general protein loading into each lane on a 10% polyacrylamide gel. Electrophoretic transfer to nitrocellulose membranes (Amersham Biosciences) was followed by immunoblotting. The signal was detected by using an ECL detection system (Amersham Biosciences).

[4] = tested on: U-87MG cells; test: Cell viability assay (Ann/PI staining, FACS) with VP16 or Taxol; details: for proliferation of cells in the control group (no TG or PTPI): 5-day cell cultures, U-87MG (not shown)
Description: as §1
(§3) Based on this hypothesis, a determination was sought whether TG enhances the cytotoxic activities of etoposide (VP16) and paclitaxel (Taxol), which are known to involve activation of caspase-2, -8, -9, and -10 during their apoptosis induction (Lin et al. (2004) J. Biol. Chem. 279, 40755-40761.; Perkins et al. (2000) Cancer Res. 60, 1645-1653.; Park et al. (2004) J. Biol. Chem. 279, 51057-51067.). To confirm this, treatment of U-87MG with TG and/or PTPI was followed by treatment with VP16 (0.01-10 μM) or Taxol (0.005-5 μM). The cells were then subjected to cell viability (FIGS. 7, A and B) and caspase activity assays (FIGS. 7, C and D).

[5] = tested on: caspase-3, -8, and -9; test: Caspase activity assay in U-87MG treated with VP16 or Taxol; details: PTPI 50 μM and TG 30 μM for 24 h, then VP16 10 μM or Taxol 5 μM
Description: as §2, §3

[6] = tested on: STAT3 mRNA; test: Real time quantitative RT-PCR; details: LN-18; STAT3-siRNA 50-600 pmol; 24 h after transfection; dose-dependent
Description: DNA amplification was performed using an […] […] ID NO: 3), STAT3 reverse, [NT] ID NO: 4); and β-actin forward, [NT] ID NO: 5), β-actin reverse, [NT] ID NO: 6).

[7] = tested on: LN-18; test: Annexin V apoptosis detection (FACS) after TRAIL treatment; details: TRAIL 300 ng/ml
Description: as §1, with “Treatment of cells with TG, GW, PTPI, and/or SHPI for 24 h was followed by treatment with rTRAIL, VP16 or Taxol, and all the cells, including cells that had not adhered, were harvested after 24 h (48 h).” left out
To examine the mechanism that causes resistance to TRAIL, glioma cell lines were used that are partially resistant to TRAIL despite their expression of DR4 and/or DR5. Western blot was used to detect the expression levels of DR4 and DR5 in LN-18, U-87MG, and MG-328 (FIG. 1A). The cytotoxic activity of TRAIL (18.75-300 ng/ml) was examined in each glioma (FIGS. 1, B and C). […] These findings indicate that these gliomas can acquire a resistance to TRAIL despite their expression of functionally intact DR4/5.

[8] = SHPI 200 μM and TG 30 μM, then rTRAIL (not shown)
[9] = STAT3-siRNA-transfected glioma cells

Molecule: O=C(Nc1ccccc1)c1cc([N+](=O)[O-])ccc1Cl [GW, GW9662]
- effect on the activity of TG in TRAIL-treated glioma cells (cell viability) ([1]; GW 20 μM and TG 30 μM for 24 h, then rTRAIL 100 ng/ml for 24 h): not blocked
- effect on the specific activities of caspases in TG/TRAIL-treated cells ([2]; GW 20 μM and TG 30 μM for 24 h, then rTRAIL 100 ng/ml for 2 h): did not reduce
- pY705-STAT3 expression in cells treated with TG and GW ([3]; GW 20 μM and TG 30 μM for 24 h): down-regulation of pY705-STAT3 was observed
- effect on the up-regulation of pS392-p53 induced by TG ([3]; GW 20 μM and TG 30 μM for 24 h, LN-18 and U-87MG): abrogated
- effect on the up-regulation of Bax found in TG-treated cells ([3]; GW 20 μM and TG 30 μM for 24 h, U-87MG): inhibited

Molecule: O=C(CBr)c1ccc(O)cc1 [PTPI, α-bromo-4-hydroxyacetophenone]
- effect on the effect of TG on TRAIL (cell viability) ([1]; PTPI 50 μM and TG 30 μM, then rTRAIL 100 ng/ml (not shown)): abrogated
- effect on the effect of TG on TRAIL (caspase activity) ([2]; PTPI 50 μM and TG 30 μM, then rTRAIL 100 ng/ml for 2 h): abrogated
- inhibition of the cytotoxic activity in TG-treated cells with VP16 or Taxol ([4]; U-87MG, PTPI 50 μM and TG 30 μM for 24 h, then VP16 or Taxol): limited effect
- effect on the effect of TG on the activity of caspase-8 and -9 [5]: completely abrogated
- inhibition of caspase-3 activity in TG-treated cells with VP16 or Taxol [5]: limited effect
- effect on the inhibitory effect of TG on pY705-STAT3 ([3]; PTPI 50 μM and TG 30 μM for 24 h): abrogated
- effect on the upregulation of pS392-p53 caused by TG ([3]; PTPI 50 μM and TG 30 μM for 24 h, LN-18 and U-87MG): did not inhibit

Molecule: O=C(O)COc1ccc(C(=O)CBr)cc1 [SHPI, α-bromo-4-carboxymethoxyacetophenone]
- effect on the effect of TG on TRAIL (cell viability) [1, 8]: did not abrogate
- effect on the effect of TG on TRAIL (caspase activity) [2, 8]: did not abrogate
- effect on the downregulation of pY705-STAT3 induced by TG ([3]; SHPI 200 μM and TG 30 μM for 24 h): did not inhibit

Molecule: Cc1c(C)c2c(c(C)c1O)CCC(C)(COc1ccc(CC3SC(=O)NC3=O)cc1)O2 (centres unmarked) [TG, troglitazone]
- effect on the cytotoxic activity of TRAIL ([1]; TG 30 μM for 24 h, then rTRAIL 100 ng/ml for 24 h, LN-18, U-87MG and MG-328): significantly enhance
- effect on the cytotoxic activity of Taxol (cell viability) ([4]; U-87MG, TG 30 μM for 24 h, then Taxol 0.005-5 μM for 48 h): positive activities
- effect on the cytotoxic activity of VP16 (cell viability) ([4]; U-87MG, TG 30 μM for 24 h, then VP16 0.01-10 μM for 48 h): positive activities
- time at which down-regulation of pY705-STAT3 was noticeable ([3]; TG 30 μM): 8 h
- STAT3 expression levels ([3]; TG 30 μM, LN-18, U-87MG, MG-328): no effect
- time at which 42 kDa PTP1B expression reached maximum levels ([3]; TG 30 μM, all gliomas): 16 to 32 h
- time of start of up-regulation of the activated form of PTP1B (42 kDa) after treatment ([3]; TG 30 μM, all gliomas): ≤ 4 h

Molecule: CC(=O)O[C@H]1C(=O)[C@@]2(C)[C@H]([C@H](OC(=O)c3ccccc3)[C@]3(O)C[C@H](OC(=O)[C@H](O)[C@@H](NC(=O)c4ccccc4)c4ccccc4)C(C)=C1C3(C)C)[C@]1(OC(C)=O)CO[C@@H]1C[C@@H]2O [Taxol, paclitaxel]
- proliferation of cells in the control group (no TG or PTPI) ([4]; Taxol 5 μM): maintained an ability to proliferate

Molecule: COc1cc([C@@H]2c3cc4c(cc3[C@@H](O[C@@H]3O[C@@H]5CO[C@@H](C)O[C@H]5[C@H](O)[C@H]3O)[C@H]3COC(=O)[C@H]23)OCO4)cc(OC)c1O [VP16, Etoposide]
- proliferation of cells in the control group (no TG or PTPI) ([4]; VP16 10 μM): maintained an ability to proliferate

Molecule: STAT3-siRNA: double-stranded siRNA oligonucleotide against STAT3 (SEQ ID NO: 1 and 2), Dharmacon (chain 1 AACAUCUGCCUAGAUCGGCUATT; chain 2 UAGCGGAUCUAGGCAGAUG; chain 1: sugars from the 5' end r21 d2, backbone not given here; chain 2: RNA, 3' dTdT, backbone not given here)
- effect on the cytotoxic effect of TRAIL ([1]; STAT3-siRNA 600 pmol, then TRAIL 100 ng/ml for 24 h): significantly enhanced
- apoptotic death of glioma cells, agent alone ([1]; STAT3-siRNA 600 pmol, without rTRAIL): did not induce their apoptotic death
- specific activities of caspases-3, -8, and -9 ([2]; STAT3-siRNA 600 pmol, then TRAIL 100 ng/ml for 2 h): significantly increased
- inhibitory effect of PTPI on TG in transfected glioma cells (caspase activity) ([2]; STAT3-siRNA 600 pmol, cells treated with TG, PTPI and TRAIL): negated
- STAT3 protein expression ([3]; LN-18, STAT3-siRNA 50-600 pmol, 24 h after transfection, dose-dependent): decreased
- Bax expression levels [3, 9]: not altered
- FLIP and Bcl-2 expression levels [3, 9]: decreased
- pY705-STAT3 expression [3, 9]: down-regulated
- STAT3 mRNA expression [6]: decreased

B1: TRAIL: Recombinant human tumor necrosis factor-related apoptosis-inducing ligand, obtained from Pepro-Tech (protein, UniProt P50591 1-281, looked up)
Tumor necrosis factor ligand …: MAMMEVQGGPSLGQTCVLIVIFTVLLQSLCVAVTYVYFTNELKQMQDKYSKSGIACFLKEDDSYWDPNDEESMNSPCWQVKWQLRQLVRKMILRTSEETISTVQEKQQNISPLVRERGPQRVAAHITGTRGRSNTLSSPNSKNEKALGRKINSWESSRSGHSFLSNLHLRNGELVIHEKGFYYIYSQTYFRFQEEIKENTKNDKQMVQYIYKYTSYPDPILLMKSARNSCWSKDAEYGLYSIYQGGIFELKENDRIFVSVTNEHLIDMDHEASFFGAFLVG
- cell death ([1]; 300 ng/ml TRAIL, after 24 h of treatment, LN-18, U-87MG, MG-328): 40-60%
- cells killed by TRAIL in the STAT3-siRNA-transfected group ([1]; TRAIL 100 ng/ml, 72-h cell culture, each glioma (not shown)): more than 95%
- proliferative ability of the viable cells ([1]; after 72 h of cell culture with 300 ng/ml TRAIL (not shown)): maintained a proliferative ability
- percentage of Ann(+) PI(−) cells (early stage of apoptosis) ([7]; after 2 h of treatment): 33.7%
- percentage of Ann(+) PI(−) cells (early stage of apoptosis) ([7]; after 24 h of treatment): 60.1%
